From US11883418B2, “Compound TSYI-ZAC for inhibiting dengue virus infection and medicinal use thereof” (Syi Biotechnology Co., Ltd., priority 2022, dated 2024)
Where “and” joins values, the source holds several entries; their conditions need not be identical. Identical values can stand only once.

Experiments:
IL-6 = IL-6 expression in infected supernatant of DENV-infected Meg-01 cells, enzyme immunoassay; type: cell-based, human; conditions: after dengue virus infection, extract at IC10 concentration
Description: (§1) 2×10^4 Meg-01 cells are lysed in a RPMI culture medium containing 10% fetal bovine serum for in vitro infection with dengue virus. The infection condition is 1 MOI, a total volume of virus sap and cell sap is 2 ml, and the selected virus is dengue virus type 2 (DENV-2), strain 16681. The infection mixture is cultured in a 37° C. incubator for 2 hours, and the tube is shaken once every 30 minutes to increase a chance of virus contacting the cells. After 2 hours, centrifuge (600 rpm, 6 minutes) with a centrifuge to remove the virus that is not in contact with the cells, and re-lyse the cells with an appropriate amount of a cell culture medium, and then divide the cells into a cell culture medium (2 ml) or into a cell culture medium additional added with the Antrodia camphorata extract ZAC and the Antrodia camphorata extract YS-1, the centrifuge tube is finally placed in a 37° C. incubator, and the infection supernatant is collected at specific infection time points (time points: 2 hours, and 1, 2, 3, 5, 7 days after infection). The infection mixture is taken out at the specific time points, centrifuged with a centrifuge (600 rpm, 6 minutes), the infection supernatant is separated, and a viral titer is assayed by viral plaque assay and an expression of cytokines is assayed by enzyme combined with immunosorbent assay. […]

Meg-01 cells = experiment: Cell viability assay (WST-1) of Meg-01 cells; type: cell-based, human; conditions: for IC10 (concentration that produces 10% inhibition of cell viability): Meg-01 cells, co-culture 7 days, WST-1, OD 440 nm; for effect on cell viability: 400 μg/mL; for effect on cell viability / toxicity on Meg-01 cells (cell viability): 7 days; for toxicity on Meg-01 cells (cell viability): low concentrations 25 μg/mL, 50 μg/mL
Description: Meg-01 cell strains (CRL2021, ATCC, human myelo-megakaryocyte leukemia cell strains) are cultured in a RPMI medium with 10% fetal bovine serum, when a cell density reaches 80-90%, the cell sap can be withdrawn into a centrifuge tube, after being centrifuged in a centrifuge (600 rpm, 6 minutes), then remove the supernatant, and re-lyse the centrifuged cells with an appropriate amount of a culture medium for subculture or subsequent experiments.
1×10^3 Meg-01 cells are lysed in 100 μL of 10% fetal bovine serum in a RPMI culture medium and seeded into a 96-well U-shaped plate. Different concentrations of the Antrodia camphorata extract ZAC and the Antrodia camphorata extract YS-1 are added to the cells for co-culture at 37° C. for 7 days, while the cells added with dimethyl sulfoxide (DMSO) are used as an experimental control group.
Please refer to FIG. 1. FIG. 1 is a graph of viability of Meg-01 cells after adding the Antrodia camphorata extract according to one embodiment of the invention. The Meg-01 cells are co-cultured with different concentrations of the Antrodia camphorata extract ZAC or the Antrodia camphorata extract YS-1 respectively, and the group added with DMSO is used as an experimental control group. After the cells are co-cultured with the Antrodia camphorata extract for 7 days, WST-1 assay reagent is added to the cells and OD 440 nm value is collected to assay a toxicity of the drug on the cells, the cell group without addition of the Antrodia camphorata extract is regarded as an experimental control group, and the cell groups added with different concentrations of the Antrodia camphorata extract are regarded as experimental groups.

[1] = system: dengue virus type 2 (DENV-2), strain 16681; experiment: Dengue virus infection of Meg-01 cells, viral titer by plaque assay; type: cell-based; conditions: for dengue viral titer versus infected control: p value<0.0001
Description: 2×10^4 Meg-01 cells are lysed in a RPMI culture medium containing 10% fetal bovine serum for in vitro infection with dengue virus. The infection condition is 1 MOI, a total volume of virus sap and cell sap is 2 ml, and the selected virus is dengue virus type 2 (DENV-2), strain 16681. The infection mixture is cultured in a 37° C. incubator for 2 hours, and the tube is shaken once every 30 minutes to increase a chance of virus contacting the cells. After 2 hours, centrifuge (600 rpm, 6 minutes) with a centrifuge to remove the virus that is not in contact with the cells, and re-lyse the cells with an appropriate amount of a cell culture medium, and then divide the cells into a cell culture medium (2 ml) or into a cell culture medium additional added with the Antrodia camphorata extract ZAC and the Antrodia camphorata extract YS-1, the centrifuge tube is finally placed in a 37° C. incubator, and the infection supernatant is collected at specific infection time points (time points: 2 hours, and 1, 2, 3, 5, 7 days after infection). The infection mixture is taken out at the specific time points, centrifuged with a centrifuge (600 rpm, 6 minutes), the infection supernatant is separated, and a viral titer is assayed by viral plaque assay and an expression of cytokines is assayed by enzyme combined with immunosorbent assay.
7×10^5/well […] kidney epithelial cells (BHK cells) are lysed in 1.5 ml of a DMEM culture medium containing 5% fetal bovine serum and seeded on a 6-well plate. The virus solution to be tested will be serially diluted first. The preparation method is to add 100 μL of unknown virus solution to 900 μL of a DMEM culture medium containing 2% fetal bovine serum to achieve a 10-fold dilution. After the cells to be seeded are attached onto the plate, remove the culture medium, add 400 μL of the virus solution to be tested, and culture in a 37° C. incubator for 2 hours. The plate needs to be shaken once every 15 minutes so that the infection solution can evenly cover the cells. After two hours, the infection solution is removed, methylcellulose is added to limit a range of virus movement, and the plate is placed back into the 37° C. incubator to culture for 7 days. […] Finally, the dye is washed off with clean water, and a number of plaques formed is counted to calculate the viral titer. […]
2 hours after the […] cells are infected by dengue virus, centrifuge to remove excessive virus, and the cells are re-lysed in a cell culture medium containing the Antrodia camphorata extract ZAC (91.68 μg/mL) or the Antrodia camphorata extract YS-1 (176.51 μg/mL), respectively. […] Plaque assay will be used on the collected infected supernatant (n=3) to quantify a viral titer.

IL-8 = IL-8 expression in infected supernatant of DENV-infected Meg-01 cells, enzyme immunoassay; type: cell-based, human; conditions: after dengue virus infection, extract at IC10 concentration
Description: as §1

IFN-α = IFN-α expression in infected supernatant of DENV-infected Meg-01 cells, enzyme immunoassay; type: cell-based, human; conditions: 5th and 7th days after infection, extract at IC10 concentration; day 5 P value 0.0021
Description: as §1

COc1cc(C)c(OC)c2c1OCO2 [YS-1, 4,7-dimethoxy-5-methyl-1,3-benzodioxole]
expression of cellular inflammatory factor IL-6 (IL-6): effectively reducing an expression
IC10 (concentration that produces 10% inhibition of cell viability) (Meg-01 cells): 176.512 µg/mL and 176.51 µg/mL
effect on cell viability (Meg-01 cells; higher concentrations 200 μg/mL): slight effect on cell viability
toxicity on Meg-01 cells (cell viability) (Meg-01 cells; 100 μg/mL): generally not toxic
dengue viral titer versus infected control ([1]; 176.51 μg/mL added after infection): significantly reducing the viral titer
inhibitory effect on dengue virus (viral titer) ([1]; high dose 176.51 μg/mL compared with low dose 25 μg/mL): better inhibitory effect on dengue virus
inhibitory effect on dengue virus (viral titer) ([1]; low dose 25 μg/mL): inhibitory effect on dengue virus
expression of cellular inflammatory factor IL-8 (IL-8): effectively reducing an expression

C=C(CC[C@@H](C)[C@H]1CC[C@H]2C3=C(C(=O)[C@H](O)[C@]12C)[C@@]1(C)CC[C@@H](O)[C@@H](C)[C@@H]1CC3=O)C(C)C(=O)O (stereo partly drawn) [ZAC, Zhankuic acid C]
expression of cellular inflammatory factor IL-6 (IL-6): effectively reducing an expression
amount of secretion of IFN-α versus infected control (IFN-α): significantly higher
IC10 (concentration that produces 10% inhibition of cell viability) (Meg-01 cells): 91.675 µg/mL and 91.68 µg/mL
effect on cell viability (Meg-01 cells; higher concentrations 100 μg/mL, 200 μg/mL): slight effect on cell viability
toxicity on Meg-01 cells (cell viability) (Meg-01 cells): generally has no toxicity
dengue viral titer versus infected control ([1]; 91.68 μg/mL added 2 hours after infection, late stages of infection (5th to 7th days)): decreases significantly
expression of cellular inflammatory factor IL-8 (IL-8): effectively reducing an expression
